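Five concentrations, 48 hours, 96-well plates. The concentration for 50% growth inhibition is given as GI50.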 The source made the active and inactive calls. No stated cut-off is given here; in the data, active = GI50 up to about 1.1 µM and inactive = higher.
Experiments:
Test in all cases: NCI tumour cell line growth inhibition, 48 h
UACC-257 = system: UACC-257
SNB-19 = system: SNB-19
SF-295 = system: SF-295
M14 = system: M14
DU-145 = system: DU-145
OVCAR-5 = system: OVCAR-5
Hs-578T = system: Hs-578T
NCI/ADR-RES = system: NCI/ADR-RES
SF-268 = system: SF-268
BT-549 = system: BT-549
NCI-H23 = system: NCI-H23
RPMI-8226 = system: RPMI-8226
HOP-92 = system: HOP-92
NCI-H522 = system: NCI-H522
K562 = system: K562
OVCAR-8 = system: OVCAR-8
SK-MEL-2 = system: SK-MEL-2
IGROV-1 = system: IGROV-1
SK-OV-3 = system: SK-OV-3

CC(=O)Oc1ccc(-c2cc3ccccc3oc2=O)cc1
GI50 (UACC-257): > 100 µM (inactive)
GI50 (SNB-19): > 100 µM (inactive)
GI50 (SF-295): 43.9 µM (inactive)
GI50 (M14): > 100 µM (inactive)
GI50 (DU-145): > 100 µM (inactive)
GI50 (OVCAR-5): > 100 µM (inactive)
GI50 (Hs-578T): > 100 µM (inactive)
GI50 (NCI/ADR-RES): > 100 µM (inactive)
GI50 (SF-268): > 100 µM (inactive)
GI50 (BT-549): > 100 µM (inactive)
GI50 (NCI-H23): > 100 µM (inactive)
GI50 (RPMI-8226): > 100 µM (inactive)
GI50 (HOP-92): 60.8 µM (inactive)
GI50 (NCI-H522): 21.8 µM (inactive)
GI50 (K562): 83.4 µM (inactive)
GI50 (OVCAR-8): > 100 µM (inactive)
GI50 (SK-MEL-2): > 100 µM (inactive)

C/C(=N\NC(N)=O)C(CN(C)C)C(c1ccccc1)c1c(O)c2ccccc2oc1=O (configuration not stated)
GI50 (UACC-257): > 100 µM (inactive)
GI50 (SNB-19): > 100 µM (inactive)
GI50 (SF-295): > 100 µM (inactive)
GI50 (M14): > 100 µM (inactive)
GI50 (IGROV-1): > 100 µM (inactive)
GI50 (DU-145): > 100 µM (inactive)
GI50 (OVCAR-5): > 100 µM (inactive)
GI50 (Hs-578T): > 100 µM (inactive)
GI50 (NCI/ADR-RES): > 100 µM (inactive)
GI50 (SF-268): > 100 µM (inactive)
GI50 (BT-549): > 100 µM (inactive)
GI50 (NCI-H23): > 100 µM (inactive)
GI50 (RPMI-8226): 61.5 µM (inactive)
GI50 (HOP-92): 0.296 µM (active)
GI50 (NCI-H522): > 100 µM (inactive)
GI50 (K562): > 100 µM (inactive)
GI50 (OVCAR-8): > 100 µM (inactive)
GI50 (SK-MEL-2): > 100 µM (inactive)

O=C1C(Cl)=C(NCCN2CCOCC2)C(=O)c2c(O)ccc(O)c21
GI50 (UACC-257): 2.11 µM (inactive)
GI50 (SNB-19): 1.81 µM (inactive)
GI50 (SF-295): 1.87 µM (inactive)
GI50 (M14): 1.84 µM (inactive)
GI50 (IGROV-1): 1.88 µM (inactive)
GI50 (DU-145): 1.71 µM (inactive)
GI50 (OVCAR-5): 1 µM (active)
GI50 (Hs-578T): 3.13 µM (inactive)
GI50 (SK-OV-3): 10 µM (inactive)
GI50 (NCI/ADR-RES): 2.09 µM (inactive)
GI50 (SF-268): 2.28 µM (inactive)
GI50 (BT-549): 2.24 µM (inactive)
GI50 (NCI-H23): 1 µM (active)
GI50 (HOP-92): 2.69 µM (inactive)
GI50 (K562): 2.06 µM (inactive)
GI50 (OVCAR-8): 3.25 µM (inactive)

CSCCC(NC(=O)Cc1ccc(C(=O)c2ccccc2)cc1)C(=O)O (configuration not stated)
GI50 (UACC-257): > 100 µM (inactive)
GI50 (SNB-19): > 100 µM (inactive)
GI50 (SF-295): > 100 µM (inactive)
GI50 (M14): > 100 µM (inactive)
GI50 (IGROV-1): > 100 µM (inactive)
GI50 (DU-145): > 100 µM (inactive)
GI50 (OVCAR-5): > 100 µM (inactive)
GI50 (Hs-578T): > 100 µM (inactive)
GI50 (SK-OV-3): > 100 µM (inactive)
GI50 (NCI/ADR-RES): > 100 µM (inactive)
GI50 (SF-268): > 100 µM (inactive)
GI50 (BT-549): > 100 µM (inactive)
GI50 (NCI-H23): > 100 µM (inactive)
GI50 (HOP-92): > 100 µM (inactive)
GI50 (NCI-H522): > 100 µM (inactive)
GI50 (K562): > 100 µM (inactive)
GI50 (OVCAR-8): > 100 µM (inactive)
GI50 (SK-MEL-2): > 100 µM (inactive)

COC(=O)C1=C(OC(=O)c2ccccc2)C(C(=O)OC)[C@]2(O)[C@@H](C(=O)OC)[C@H]1C[C@@H](c1ccccc1)[C@@H]2C(=O)OC (some centres not stated)
GI50 (UACC-257): 5.62 µM (inactive)
GI50 (SNB-19): 10.7 µM (inactive)
GI50 (SF-295): 5.82 µM (inactive)
GI50 (M14): 1.95 µM (inactive)
GI50 (IGROV-1): 4.69 µM (inactive)
GI50 (DU-145): 9.4 µM (inactive)
GI50 (OVCAR-5): 22.9 µM (inactive)
GI50 (Hs-578T): 13.8 µM (inactive)
GI50 (SK-OV-3): 10.6 µM (inactive)
GI50 (NCI/ADR-RES): 2.62 µM (inactive)
GI50 (SF-268): 11.4 µM (inactive)
GI50 (BT-549): 12.2 µM (inactive)
GI50 (NCI-H23): 6.32 µM (inactive)
GI50 (RPMI-8226): 1.74 µM (inactive)
GI50 (HOP-92): 2.82 µM (inactive)
GI50 (K562): 3.33 µM (inactive)
GI50 (OVCAR-8): 6.11 µM (inactive)
GI50 (SK-MEL-2): 2.81 µM (inactive)

CCC(=O)c1ccc2[nH]c3c(C)c4c(O)cc(C)nc4c(C)c3c2c1
GI50 (UACC-257): > 100 µM (inactive)
GI50 (SNB-19): > 100 µM (inactive)
GI50 (SF-295): > 100 µM (inactive)
GI50 (M14): > 100 µM (inactive)
GI50 (IGROV-1): > 100 µM (inactive)
GI50 (DU-145): > 100 µM (inactive)
GI50 (OVCAR-5): > 100 µM (inactive)
GI50 (Hs-578T): > 100 µM (inactive)
GI50 (NCI/ADR-RES): > 100 µM (inactive)
GI50 (SF-268): > 100 µM (inactive)
GI50 (BT-549): > 100 µM (inactive)
GI50 (NCI-H23): > 100 µM (inactive)
GI50 (HOP-92): 4.3 µM (inactive)
GI50 (NCI-H522): > 100 µM (inactive)
GI50 (OVCAR-8): > 100 µM (inactive)
GI50 (SK-MEL-2): > 100 µM (inactive)

CCOc1ccncc1[N+](=O)[O-]
GI50 (UACC-257): > 100 µM (inactive)
GI50 (SNB-19): > 100 µM (inactive)
GI50 (SF-295): > 100 µM (inactive)
GI50 (M14): > 100 µM (inactive)
GI50 (IGROV-1): > 100 µM (inactive)
GI50 (DU-145): > 100 µM (inactive)
GI50 (OVCAR-5): > 100 µM (inactive)
GI50 (Hs-578T): > 100 µM (inactive)
GI50 (SK-OV-3): > 100 µM (inactive)
GI50 (NCI/ADR-RES): > 100 µM (inactive)
GI50 (SF-268): > 100 µM (inactive)
GI50 (BT-549): > 100 µM (inactive)
GI50 (NCI-H23): > 100 µM (inactive)
GI50 (RPMI-8226): > 100 µM (inactive)
GI50 (NCI-H522): > 100 µM (inactive)
GI50 (K562): > 100 µM (inactive)
GI50 (OVCAR-8): > 100 µM (inactive)
GI50 (SK-MEL-2): > 100 µM (inactive)

Oc1cccc2c(Cl)ccnc12
GI50 (UACC-257): 3.1 µM (inactive)
GI50 (SNB-19): 23 µM (inactive)
GI50 (SF-295): 0.889 µM (active)
GI50 (M14): 1.44 µM (inactive)
GI50 (IGROV-1): 1.61 µM (inactive)
GI50 (DU-145): 5.51 µM (inactive)
GI50 (OVCAR-5): 5.22 µM (inactive)
GI50 (Hs-578T): 7.93 µM (inactive)
GI50 (SK-OV-3): 32.9 µM (inactive)
GI50 (NCI/ADR-RES): 2.3 µM (inactive)
GI50 (SF-268): 0.522 µM (active)
GI50 (BT-549): 13.7 µM (inactive)
GI50 (NCI-H23): 3.15 µM (inactive)
GI50 (RPMI-8226): 0.499 µM (active)
GI50 (HOP-92): 2.84 µM (inactive)
GI50 (NCI-H522): 0.741 µM (active)
GI50 (K562): 0.42 µM (active)
GI50 (OVCAR-8): 0.372 µM (active)

O=C(Nc1noc(-c2ccccc2)n1)c1ccccc1CNc1noc(-c2ccccc2)n1
GI50 (UACC-257): > 100 µM (inactive)
GI50 (SNB-19): > 100 µM (inactive)
GI50 (SF-295): > 100 µM (inactive)
GI50 (M14): > 100 µM (inactive)
GI50 (IGROV-1): > 100 µM (inactive)
GI50 (DU-145): > 100 µM (inactive)
GI50 (OVCAR-5): > 100 µM (inactive)
GI50 (Hs-578T): > 100 µM (inactive)
GI50 (SK-OV-3): > 100 µM (inactive)
GI50 (NCI/ADR-RES): > 100 µM (inactive)
GI50 (SF-268): > 100 µM (inactive)
GI50 (BT-549): > 100 µM (inactive)
GI50 (NCI-H23): > 100 µM (inactive)
GI50 (RPMI-8226): > 100 µM (inactive)
GI50 (HOP-92): 62.8 µM (inactive)
GI50 (NCI-H522): > 100 µM (inactive)
GI50 (K562): > 100 µM (inactive)
GI50 (OVCAR-8): > 100 µM (inactive)

CN(C(=O)OC(C)(C)C)[C@H]1CCCC[C@H]1N1CCCC1
GI50 (UACC-257): 53.7 µM (inactive)
GI50 (SNB-19): > 100 µM (inactive)
GI50 (SF-295): > 100 µM (inactive)
GI50 (M14): > 100 µM (inactive)
GI50 (IGROV-1): > 100 µM (inactive)
GI50 (DU-145): > 100 µM (inactive)
GI50 (OVCAR-5): > 100 µM (inactive)
GI50 (Hs-578T): > 100 µM (inactive)
GI50 (SK-OV-3): > 100 µM (inactive)
GI50 (NCI/ADR-RES): > 100 µM (inactive)
GI50 (SF-268): > 100 µM (inactive)
GI50 (BT-549): > 100 µM (inactive)
GI50 (NCI-H23): > 100 µM (inactive)
GI50 (RPMI-8226): > 100 µM (inactive)
GI50 (NCI-H522): > 100 µM (inactive)
GI50 (K562): > 100 µM (inactive)
GI50 (OVCAR-8): > 100 µM (inactive)
GI50 (SK-MEL-2): > 100 µM (inactive)

COc1c2c(cc3oc(C)cc(=O)c13)OC(=N)C(C(N)=O)C2CC(=O)c1ccc(N)cc1 (configuration not stated)
GI50 (UACC-257): > 100 µM (inactive)
GI50 (SNB-19): > 100 µM (inactive)
GI50 (SF-295): > 100 µM (inactive)
GI50 (M14): > 100 µM (inactive)
GI50 (IGROV-1): > 100 µM (inactive)
GI50 (DU-145): > 100 µM (inactive)
GI50 (OVCAR-5): > 100 µM (inactive)
GI50 (Hs-578T): > 100 µM (inactive)
GI50 (NCI/ADR-RES): > 100 µM (inactive)
GI50 (SF-268): > 100 µM (inactive)
GI50 (BT-549): > 100 µM (inactive)
GI50 (RPMI-8226): > 100 µM (inactive)
GI50 (HOP-92): > 100 µM (inactive)
GI50 (NCI-H522): > 100 µM (inactive)
GI50 (K562): > 100 µM (inactive)
GI50 (OVCAR-8): > 100 µM (inactive)
GI50 (SK-MEL-2): > 100 µM (inactive)
